Assay results: ChEMBL document CHEMBL3758128, “Studies on Aryl-Substituted Phenylalanines: Synthesis, Activity, and Different Binding Modes at AMPA Receptors” (J Med Chem, 2016)

Tests used:
[1] = target: T1, Glutamate receptor 2 (Rattus norvegicus, UniProt P19491); assay: Displacement of [3H]AMPA from full length rat cloned GluA2(R)o receptor expressed in sf9 cells incubated for 1 to 2 hrs by liquid scintillation counting method
[2] = target: T1, Glutamate receptor 2; assay: Antagonist activity against recombinant rat GluA2(Q)i expressed in xenopus oocytes assessed as inhibition of L-glutamate-induced […] by two electrode voltage clamp method; type: cell-based
[3] = target: T2, Glutamate receptor 2 (Homo sapiens, UniProt P42262); assay: Displacement of [3H]AMPA from GluA2 LBD (unknown origin) incubated for 2 hrs by liquid scintillation counting method
T2 sequence (P42262 whole entry, the tested form may be a part): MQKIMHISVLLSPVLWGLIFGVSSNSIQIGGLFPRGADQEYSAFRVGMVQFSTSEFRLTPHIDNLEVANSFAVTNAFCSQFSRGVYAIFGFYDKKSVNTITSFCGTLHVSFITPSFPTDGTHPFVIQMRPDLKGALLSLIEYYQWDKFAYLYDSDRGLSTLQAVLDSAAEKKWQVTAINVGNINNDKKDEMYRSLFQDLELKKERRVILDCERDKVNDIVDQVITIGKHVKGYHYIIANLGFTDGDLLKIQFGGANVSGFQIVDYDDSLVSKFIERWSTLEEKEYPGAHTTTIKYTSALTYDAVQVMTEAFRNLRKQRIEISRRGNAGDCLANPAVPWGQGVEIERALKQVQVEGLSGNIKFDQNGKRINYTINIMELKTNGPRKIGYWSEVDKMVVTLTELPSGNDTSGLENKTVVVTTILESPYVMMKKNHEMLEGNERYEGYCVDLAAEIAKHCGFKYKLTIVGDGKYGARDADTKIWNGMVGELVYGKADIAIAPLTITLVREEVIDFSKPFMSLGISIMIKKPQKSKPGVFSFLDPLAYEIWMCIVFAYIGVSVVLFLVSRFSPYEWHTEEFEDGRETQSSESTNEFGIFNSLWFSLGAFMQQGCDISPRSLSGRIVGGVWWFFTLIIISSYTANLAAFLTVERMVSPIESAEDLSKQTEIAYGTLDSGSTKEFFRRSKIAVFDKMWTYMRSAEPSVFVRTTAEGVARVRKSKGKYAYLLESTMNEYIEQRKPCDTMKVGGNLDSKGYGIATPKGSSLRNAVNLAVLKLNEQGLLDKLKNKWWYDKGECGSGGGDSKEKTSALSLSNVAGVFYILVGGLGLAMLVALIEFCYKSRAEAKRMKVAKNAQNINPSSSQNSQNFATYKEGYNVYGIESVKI

[4] = target: Glutamate NMDA receptor
Description: Displacement of [3H]CGP39653 from NMDA receptor in rat brain homogenate after 60 mins by Packard TopCount microplate scintillation counting method

[5] = target: Glutamate receptor ionotropic, kainate 1 (Rattus norvegicus, UniProt P22756); assay: biochemical
Description: Displacement of [3H]SYM2081 from recombinant rat GluK1(Q)1b receptor expressed in sf9 cells incubated for 1 to 2 hrs by liquid scintillation counting method

[6] = target: Glutamate receptor 1 (Rattus norvegicus, UniProt P19490); assay: biochemical
Chain of Glutamate receptor 1 (P19490 whole entry): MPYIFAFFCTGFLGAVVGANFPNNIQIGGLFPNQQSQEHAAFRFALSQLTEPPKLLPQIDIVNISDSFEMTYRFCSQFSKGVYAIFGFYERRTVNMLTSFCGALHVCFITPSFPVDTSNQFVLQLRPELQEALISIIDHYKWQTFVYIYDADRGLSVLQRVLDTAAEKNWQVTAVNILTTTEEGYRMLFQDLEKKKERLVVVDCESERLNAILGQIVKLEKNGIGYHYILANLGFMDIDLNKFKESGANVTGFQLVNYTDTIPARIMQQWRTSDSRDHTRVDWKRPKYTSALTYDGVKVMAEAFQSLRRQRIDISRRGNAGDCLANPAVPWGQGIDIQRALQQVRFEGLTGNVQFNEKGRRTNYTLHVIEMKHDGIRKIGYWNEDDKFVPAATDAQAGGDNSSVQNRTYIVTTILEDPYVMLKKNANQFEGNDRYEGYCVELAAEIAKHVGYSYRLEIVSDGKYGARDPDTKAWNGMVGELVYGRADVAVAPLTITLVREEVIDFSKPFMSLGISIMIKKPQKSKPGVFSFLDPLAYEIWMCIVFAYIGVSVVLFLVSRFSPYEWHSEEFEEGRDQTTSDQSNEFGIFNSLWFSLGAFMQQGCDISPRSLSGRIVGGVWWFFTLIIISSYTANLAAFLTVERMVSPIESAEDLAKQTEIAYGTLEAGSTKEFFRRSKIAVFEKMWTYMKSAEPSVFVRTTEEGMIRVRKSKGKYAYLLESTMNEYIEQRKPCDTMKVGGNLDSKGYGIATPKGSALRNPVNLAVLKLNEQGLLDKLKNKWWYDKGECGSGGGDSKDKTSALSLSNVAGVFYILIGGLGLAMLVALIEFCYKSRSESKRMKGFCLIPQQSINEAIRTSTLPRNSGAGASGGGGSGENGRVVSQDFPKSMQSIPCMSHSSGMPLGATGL
Description: Displacement of [3H]AMPA from rat cloned GluA1o receptor expressed in sf9 cells incubated for 1 to 2 hrs by liquid scintillation counting method

[7] = target: Glutamate receptor 3 (Rattus norvegicus, UniProt P19492); assay: biochemical
Chain of Glutamate receptor 3 (P19492 whole entry): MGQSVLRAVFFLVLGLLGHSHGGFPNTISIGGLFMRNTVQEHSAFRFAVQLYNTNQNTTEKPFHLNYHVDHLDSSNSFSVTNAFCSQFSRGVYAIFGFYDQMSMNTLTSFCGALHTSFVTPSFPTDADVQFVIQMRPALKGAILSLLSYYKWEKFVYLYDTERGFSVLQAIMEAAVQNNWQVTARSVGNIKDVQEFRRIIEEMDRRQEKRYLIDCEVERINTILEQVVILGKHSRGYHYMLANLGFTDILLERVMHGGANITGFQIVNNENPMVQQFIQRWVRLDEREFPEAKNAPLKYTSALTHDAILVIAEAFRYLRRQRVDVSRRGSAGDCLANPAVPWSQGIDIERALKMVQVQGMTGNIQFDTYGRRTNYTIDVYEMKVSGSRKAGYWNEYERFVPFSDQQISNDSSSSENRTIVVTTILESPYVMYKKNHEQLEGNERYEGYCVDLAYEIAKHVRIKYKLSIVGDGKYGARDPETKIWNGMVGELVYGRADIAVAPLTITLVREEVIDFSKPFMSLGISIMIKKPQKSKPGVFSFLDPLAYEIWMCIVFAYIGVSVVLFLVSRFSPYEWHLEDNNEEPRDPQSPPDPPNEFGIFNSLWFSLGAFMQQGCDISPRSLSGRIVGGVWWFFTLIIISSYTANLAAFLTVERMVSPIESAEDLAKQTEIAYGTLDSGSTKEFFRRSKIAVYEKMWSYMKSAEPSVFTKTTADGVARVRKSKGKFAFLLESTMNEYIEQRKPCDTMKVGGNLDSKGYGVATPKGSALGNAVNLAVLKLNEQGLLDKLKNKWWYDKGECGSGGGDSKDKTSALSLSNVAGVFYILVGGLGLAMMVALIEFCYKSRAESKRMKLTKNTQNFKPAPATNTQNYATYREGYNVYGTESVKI
Description: Displacement of [3H]AMPA from rat cloned GluA3o receptor expressed in sf9 cells incubated for 1 to 2 hrs by liquid scintillation counting method

[8] = target: Glutamate receptor ionotropic, kainate 2 (Rattus norvegicus, UniProt P42260); assay: biochemical
Chain of Glutamate receptor ionotropic, kainate 2 (P42260 whole entry): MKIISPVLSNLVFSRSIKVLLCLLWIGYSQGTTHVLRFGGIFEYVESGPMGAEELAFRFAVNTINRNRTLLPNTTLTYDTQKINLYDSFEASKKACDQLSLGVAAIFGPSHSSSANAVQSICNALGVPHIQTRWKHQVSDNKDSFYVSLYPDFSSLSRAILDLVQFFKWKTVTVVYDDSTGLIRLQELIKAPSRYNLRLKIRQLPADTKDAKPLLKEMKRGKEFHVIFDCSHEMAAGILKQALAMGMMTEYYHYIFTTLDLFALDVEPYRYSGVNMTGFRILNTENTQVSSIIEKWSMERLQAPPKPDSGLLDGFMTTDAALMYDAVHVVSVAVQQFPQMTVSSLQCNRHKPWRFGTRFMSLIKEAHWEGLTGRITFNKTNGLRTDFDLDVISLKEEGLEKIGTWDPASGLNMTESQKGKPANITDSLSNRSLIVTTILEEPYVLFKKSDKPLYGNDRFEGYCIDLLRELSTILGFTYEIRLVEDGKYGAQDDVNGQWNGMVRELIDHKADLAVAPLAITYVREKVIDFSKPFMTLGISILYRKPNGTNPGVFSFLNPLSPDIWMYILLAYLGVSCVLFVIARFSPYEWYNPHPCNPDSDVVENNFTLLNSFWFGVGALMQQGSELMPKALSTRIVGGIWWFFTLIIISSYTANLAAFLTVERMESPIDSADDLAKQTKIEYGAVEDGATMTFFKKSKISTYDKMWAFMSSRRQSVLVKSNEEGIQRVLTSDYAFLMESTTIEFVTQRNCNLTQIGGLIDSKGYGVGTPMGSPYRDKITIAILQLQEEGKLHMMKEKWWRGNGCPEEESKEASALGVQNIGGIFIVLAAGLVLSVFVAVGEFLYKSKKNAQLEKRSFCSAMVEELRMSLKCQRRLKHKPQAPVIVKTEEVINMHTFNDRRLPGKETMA
Description: Displacement of [3H]SYM2081 from cloned rat GluK2(V,C,R)A receptor expressed in sf9 cells incubated for 1 to 2 hrs by liquid scintillation counting method

[9] = target: Glutamate receptor ionotropic, kainate 3 (Rattus norvegicus, UniProt P42264); assay: biochemical
Chain of Glutamate receptor ionotropic, kainate 3 (P42264 whole entry): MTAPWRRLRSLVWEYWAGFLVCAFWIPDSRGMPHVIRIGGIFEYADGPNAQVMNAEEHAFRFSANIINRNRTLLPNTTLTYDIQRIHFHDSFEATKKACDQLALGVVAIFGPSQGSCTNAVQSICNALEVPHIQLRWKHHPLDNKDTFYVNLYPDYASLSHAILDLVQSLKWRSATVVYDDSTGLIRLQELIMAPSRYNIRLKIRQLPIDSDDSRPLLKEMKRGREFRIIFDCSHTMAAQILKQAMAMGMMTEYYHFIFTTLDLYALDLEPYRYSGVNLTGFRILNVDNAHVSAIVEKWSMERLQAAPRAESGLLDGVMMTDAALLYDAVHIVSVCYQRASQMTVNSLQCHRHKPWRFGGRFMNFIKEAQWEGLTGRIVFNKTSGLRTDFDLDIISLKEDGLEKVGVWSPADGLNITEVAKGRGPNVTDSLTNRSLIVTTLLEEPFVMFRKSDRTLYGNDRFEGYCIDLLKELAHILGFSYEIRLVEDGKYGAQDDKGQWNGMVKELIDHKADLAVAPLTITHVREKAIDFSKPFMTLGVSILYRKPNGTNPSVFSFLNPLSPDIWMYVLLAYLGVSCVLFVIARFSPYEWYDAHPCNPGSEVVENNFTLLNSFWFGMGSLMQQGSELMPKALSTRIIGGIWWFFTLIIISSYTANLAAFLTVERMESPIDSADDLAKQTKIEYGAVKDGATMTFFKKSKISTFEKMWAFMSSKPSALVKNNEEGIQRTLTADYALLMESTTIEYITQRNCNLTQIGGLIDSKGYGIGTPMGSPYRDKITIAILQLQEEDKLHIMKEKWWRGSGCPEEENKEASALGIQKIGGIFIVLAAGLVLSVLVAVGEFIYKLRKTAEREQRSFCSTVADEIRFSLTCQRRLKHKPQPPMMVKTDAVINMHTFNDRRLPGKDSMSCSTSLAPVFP
Description: Displacement of [3H]SYM2081 from cloned rat GluK3A receptor expressed in sf9 cells incubated for 1 to 2 hrs by liquid scintillation counting method

[10] = target: T2, Glutamate receptor 2; assay: Agonist activity at human GluA2(Q)i expressed in HEK293 cells assessed as enhancement of glutamate-evoked desensitized current by whole cell patch clamp method; type: cell-based

T1 sequence (P19491 whole entry): as the sequence (P42262 whole entry, the tested form may be a part) above, with M191T, T291A, R764G, A852P counted along it

SMILES | Ki [4] [µM] | Ki [5] [µM] | other results
N[C@@H](Cc1cc(Cl)c(Cl)c(-c2cncc(O)c2)c1)C(=O)O | > 50 | > 100 | Ki [1]: 1.74 µM; IC50 [2]: 3.7 µM; Ki [3]: 2.26 µM; Ki [6]: 6.65 µM; Ki [7]: 6.88 µM; Ki [8]: > 100 µM; Ki [9]: > 100 µM
NC(Cc1cc(Cl)c(Cl)c(-c2ccc(O)c(O)c2)c1)C(=O)O (stereo not given) | > 50 | > 50 | –
N[C@H](Cc1cc(Cl)c(Cl)c(-c2cncc(O)c2)c1)C(=O)O | > 50 | > 100 | Ki [1]: > 100 µM; Ki [6]: > 100 µM; Ki [7]: > 100 µM; Ki [8]: > 100 µM; Ki [9]: > 100 µM
NC(Cc1cc(Cl)c(Cl)c(-c2ccc3c(c2)OCCO3)c1)C(=O)O (racemic) | > 50 | > 50 | –
NC(Cc1cc(Cl)c(Cl)c(-c2ccc(O)nc2)c1)C(=O)O (racemic) | > 50 | > 50 | –
NC(Cc1cc(Cl)c(Cl)c(-c2cncc(O)c2)c1)C(=O)O (racemic) | > 50 | > 50 | –
NC(Cc1cc(Cl)c(Cl)c(-c2cccc(S(N)(=O)=O)c2)c1)C(=O)O (racemic) | > 50 | > 50 | –
Nc1cccc(-c2cc(CC(N)C(=O)O)cc(Cl)c2Cl)c1 (racemic) | > 50 | > 50 | –
NC(Cc1cc(Cl)c(Cl)c(-c2cc(O)cc(O)c2)c1)C(=O)O (racemic) | > 50 | > 50 | –
NC(Cc1cc(Cl)c(Cl)c(-c2cccc(CO)c2)c1)C(=O)O (racemic) | > 50 | > 50 | –
COc1cccc(-c2cc(CC(N)C(=O)O)cc(Cl)c2Cl)c1 (racemic) | > 50 | > 50 | –
NC(Cc1cc(Cl)c(Cl)c(-c2ccc(CO)cc2)c1)C(=O)O (racemic) | > 50 | > 50 | –
NC(Cc1cc(Cl)c(Cl)c(-c2ccc(S(N)(=O)=O)cc2)c1)C(=O)O (racemic) | > 50 | > 50 | –
NC(Cc1cc(Cl)c(Cl)c(-c2cccc(O)c2)c1)C(=O)O (racemic) | – | 92.3 | Ki [1]: 5.03 µM; Ki [6]: 17.1 µM; Ki [7]: 55.1 µM; Ki [8]: 78.1 µM; Ki [9]: 52.3 µM
NS(=O)(=O)c1cc2c(cc1Cl)NC(C1CC3C=CC1C3)NS2(=O)=O (stereo not given) [CYCLOTHIAZIDE] | – | – | EC50 [10]: 7.6 µM
